# Measured values published in patent publication US10512632B2, “1 H-pyrazolo[4,3-B]pyridines as PDE1 inhibitors” (priority 2016, dated 2019).
# Legend:
# PDE1B = PDE1B (Homo sapiens (Human), UniProt Q01064); test: PDE1 inhibition assay (PDE1B), SPA with tritium labelled cAMP; type: biochemical; details: 15 nM tritium labelled cAMP, 1 hr at room temperature
# Excerpt: (§1) Table 1 lists the IC50 value for inhibition of PDE1 by the compounds of the invention. […] PDE1 assays are described in the Experimental Section.
# PDE1A = PDE1A (Homo sapiens (Human), UniProt P54750); test: PDE1 inhibition assay (PDE1A), SPA with tritium labelled cAMP; type: biochemical; details: 15 nM tritium labelled cAMP, 1 hr at room temperature
# Excerpt: as §1
# Chain of PDE1A (P54750 whole entry): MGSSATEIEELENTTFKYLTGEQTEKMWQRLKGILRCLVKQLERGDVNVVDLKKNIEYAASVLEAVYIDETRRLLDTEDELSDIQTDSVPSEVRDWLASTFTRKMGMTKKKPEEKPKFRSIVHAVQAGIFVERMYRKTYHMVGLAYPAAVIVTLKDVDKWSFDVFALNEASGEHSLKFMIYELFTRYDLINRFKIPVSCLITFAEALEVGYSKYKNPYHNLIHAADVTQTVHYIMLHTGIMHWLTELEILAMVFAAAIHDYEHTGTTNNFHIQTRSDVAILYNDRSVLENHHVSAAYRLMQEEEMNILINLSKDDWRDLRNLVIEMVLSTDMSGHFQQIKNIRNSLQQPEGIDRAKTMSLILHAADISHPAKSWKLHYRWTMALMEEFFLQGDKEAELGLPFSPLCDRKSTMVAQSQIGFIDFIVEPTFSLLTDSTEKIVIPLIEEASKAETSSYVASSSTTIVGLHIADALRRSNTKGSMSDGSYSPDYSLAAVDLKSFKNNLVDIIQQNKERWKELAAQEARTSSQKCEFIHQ
# Chain of PDE1B (Q01064 whole entry): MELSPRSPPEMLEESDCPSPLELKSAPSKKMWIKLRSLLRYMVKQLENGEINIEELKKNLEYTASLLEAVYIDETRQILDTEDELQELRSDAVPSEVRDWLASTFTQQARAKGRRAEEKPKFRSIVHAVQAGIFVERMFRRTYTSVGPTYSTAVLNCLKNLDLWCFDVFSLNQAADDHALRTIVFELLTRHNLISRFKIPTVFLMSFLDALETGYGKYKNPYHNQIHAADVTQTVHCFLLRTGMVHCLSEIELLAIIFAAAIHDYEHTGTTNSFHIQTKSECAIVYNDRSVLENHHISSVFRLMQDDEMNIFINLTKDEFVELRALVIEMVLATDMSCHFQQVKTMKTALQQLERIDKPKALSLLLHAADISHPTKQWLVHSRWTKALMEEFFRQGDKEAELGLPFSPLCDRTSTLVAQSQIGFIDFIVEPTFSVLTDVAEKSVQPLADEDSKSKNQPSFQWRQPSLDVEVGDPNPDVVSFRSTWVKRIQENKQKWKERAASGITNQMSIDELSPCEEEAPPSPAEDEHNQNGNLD
smiles,measurement,setting,value
"CCOc1ncccc1-c1cc(NCc2ccncc2OC)c2c(n1)c(C)nn2C(C)C [Example 172, 5-(2-ethoxy-3-pyridyl)-1-isopropyl-N-[(3-methoxy-4-pyridyl)methyl]-3-methyl-pyrazolo[4,3-b]pyridin-7-amine]",IC50,PDE1B,0.0055 µM
same,IC50,PDE1A,0.04 µM
